Reference: patent publication US9598414B2, “Substituted benzo[5,6]azepino[3,2,1-hi]pyrido[4,3-b]indoles and substituted benzo[6,7][1,4]oxazepino[2,3,4-hi]pyrido[4,3-b]indoles for treating CNS disorders” (Daya Drug Discoveries, Inc., priority 2013, dated 2017)

Experiments:
Histamine H3 = Histamine H3 (Homo sapiens, UniProt Q9Y5N1); assay: Receptor binding, H3
Muscarinic M3 = Muscarinic M3 (Homo sapiens, UniProt P20309); assay: Receptor binding, M3
Serotonin 5-HT1A = molecular target: T1, Serotonin 5-HT1A (Homo sapiens, UniProt P08908); assay: Receptor binding, 5-HT1A
T1 sequence (P08908 1-422): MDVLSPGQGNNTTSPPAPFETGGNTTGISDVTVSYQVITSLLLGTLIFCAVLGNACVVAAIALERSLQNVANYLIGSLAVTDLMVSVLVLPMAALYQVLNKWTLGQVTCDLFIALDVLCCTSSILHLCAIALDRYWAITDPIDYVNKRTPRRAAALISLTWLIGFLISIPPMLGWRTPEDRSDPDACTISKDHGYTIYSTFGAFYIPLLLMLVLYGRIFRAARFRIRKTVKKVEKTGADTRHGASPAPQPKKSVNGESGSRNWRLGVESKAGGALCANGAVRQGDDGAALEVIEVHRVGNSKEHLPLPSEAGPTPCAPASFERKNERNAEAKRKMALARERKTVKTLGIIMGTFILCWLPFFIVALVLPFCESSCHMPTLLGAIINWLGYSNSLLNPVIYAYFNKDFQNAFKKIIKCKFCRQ

Serotonin 5-HT2B = Serotonin 5-HT2B (Homo sapiens, UniProt P41595); assay: Receptor binding, 5-HT2B
Dopamine transporter = Dopamine transporter (Homo sapiens, UniProt Q01959); assay: Receptor binding, dopamine transporter; conditions: Transporters: Dopamine
Sequence of Dopamine transporter (Q01959 whole entry): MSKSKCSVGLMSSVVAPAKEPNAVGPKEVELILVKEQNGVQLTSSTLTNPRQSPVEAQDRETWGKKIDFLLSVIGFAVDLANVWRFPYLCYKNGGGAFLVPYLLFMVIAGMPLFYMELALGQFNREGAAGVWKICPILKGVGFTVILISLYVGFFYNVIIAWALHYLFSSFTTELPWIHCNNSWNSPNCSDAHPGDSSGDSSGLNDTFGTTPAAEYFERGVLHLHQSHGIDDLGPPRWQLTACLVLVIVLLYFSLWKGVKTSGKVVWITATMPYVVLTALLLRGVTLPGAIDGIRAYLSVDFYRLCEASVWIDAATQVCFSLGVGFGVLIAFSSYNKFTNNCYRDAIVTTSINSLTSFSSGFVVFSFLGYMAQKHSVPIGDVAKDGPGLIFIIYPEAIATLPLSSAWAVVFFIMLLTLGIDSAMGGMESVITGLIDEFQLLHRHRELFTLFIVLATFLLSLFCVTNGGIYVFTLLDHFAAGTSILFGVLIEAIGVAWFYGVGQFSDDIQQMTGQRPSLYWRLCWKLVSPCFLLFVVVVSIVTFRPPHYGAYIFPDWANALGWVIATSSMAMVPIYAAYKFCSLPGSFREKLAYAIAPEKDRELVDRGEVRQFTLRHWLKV

Opioid μ = Opioid μ (Homo sapiens, UniProt P35372); assay: Receptor binding, opioid μ
Sequence of Opioid μ (P35372 whole entry): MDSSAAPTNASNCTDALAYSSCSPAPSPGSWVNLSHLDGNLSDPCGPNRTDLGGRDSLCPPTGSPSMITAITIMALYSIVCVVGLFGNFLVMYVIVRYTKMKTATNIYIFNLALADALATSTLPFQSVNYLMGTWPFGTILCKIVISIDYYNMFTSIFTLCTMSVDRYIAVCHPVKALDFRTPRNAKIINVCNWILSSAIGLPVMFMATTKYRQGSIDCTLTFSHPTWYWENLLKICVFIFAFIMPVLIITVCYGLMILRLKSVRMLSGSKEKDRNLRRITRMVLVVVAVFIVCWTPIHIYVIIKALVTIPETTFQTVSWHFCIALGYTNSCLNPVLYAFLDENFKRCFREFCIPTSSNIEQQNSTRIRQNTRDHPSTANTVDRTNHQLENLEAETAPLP

Muscarinic M5 = Muscarinic M5 (Homo sapiens, UniProt P08912); assay: Receptor binding, M5
Dopamine D3 = Dopamine D3 (Homo sapiens, UniProt P35462); assay: Receptor binding, D3
[1] = system: mice (129SV/PAS background); assay: MDMA-induced motor behavior (locomotor activity); format: in vivo; conditions: FIG. 4
Method: In this in vivo study, locomotor activity was measured in a circular corridor with four infrared beams placed at every 90° (Imetronic, France). Counts were incremented by consecutive interruption of two adjacent beams (i.e. mice moving through one-quarter of the corridor). DDD-024 was tested in MDMA-induced motor behavior at 5, 10 and 20 mg/kg, ip, in mice (129SV/PAS background, 8 week old, Charles River Laboratories). The animals were injected with vehicle and individually placed in the activity box for 30 min during 3 days consecutively for habituation before experiments. Mice received vehicle or DDD-024 (5-20 mg/kg, i.p.) injection 30 min before MDMA injection (10 mg/kg).

Serotonin 5-HT1E = Serotonin 5-HT1E (Homo sapiens, UniProt P28566); assay: Receptor binding, 5-HT1E
Sequence of Serotonin 5-HT1E (P28566 whole entry): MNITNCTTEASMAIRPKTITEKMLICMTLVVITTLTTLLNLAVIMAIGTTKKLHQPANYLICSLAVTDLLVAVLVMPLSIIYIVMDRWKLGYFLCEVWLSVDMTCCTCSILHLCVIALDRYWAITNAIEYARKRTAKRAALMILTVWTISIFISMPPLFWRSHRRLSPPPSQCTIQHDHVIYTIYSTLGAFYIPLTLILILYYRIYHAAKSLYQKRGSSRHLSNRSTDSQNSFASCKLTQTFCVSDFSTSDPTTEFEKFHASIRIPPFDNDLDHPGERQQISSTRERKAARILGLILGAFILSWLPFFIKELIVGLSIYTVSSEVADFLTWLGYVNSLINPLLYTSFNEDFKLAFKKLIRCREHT

Opioid δ = Opioid δ (Homo sapiens, UniProt P41143); assay: Receptor binding, opioid δ
[2] = molecular target: Norepinephrine transporter (Homo sapiens, UniProt P23975); assay: Receptor binding, norepinephrine transporter; conditions: Transporters: Norepinephrine
Opioid κ = Opioid κ (Homo sapiens, UniProt P41145); assay: Receptor binding, opioid κ
Sequence of Opioid κ (P41145 whole entry): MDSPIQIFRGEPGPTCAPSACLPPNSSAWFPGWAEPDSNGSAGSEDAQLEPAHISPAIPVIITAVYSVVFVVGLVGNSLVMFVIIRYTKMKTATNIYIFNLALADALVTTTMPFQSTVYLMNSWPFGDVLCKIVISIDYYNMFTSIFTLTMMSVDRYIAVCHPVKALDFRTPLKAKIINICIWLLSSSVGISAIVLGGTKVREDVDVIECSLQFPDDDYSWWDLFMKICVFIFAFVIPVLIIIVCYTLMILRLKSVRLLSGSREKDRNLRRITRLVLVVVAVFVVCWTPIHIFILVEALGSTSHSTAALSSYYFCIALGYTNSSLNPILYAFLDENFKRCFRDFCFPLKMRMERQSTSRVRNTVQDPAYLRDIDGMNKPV

Serotonin 5-HT6 = Serotonin 5-HT6 (Homo sapiens, UniProt P50406); assay: Receptor binding, 5-HT6
Sequence of Serotonin 5-HT6 (P50406 whole entry): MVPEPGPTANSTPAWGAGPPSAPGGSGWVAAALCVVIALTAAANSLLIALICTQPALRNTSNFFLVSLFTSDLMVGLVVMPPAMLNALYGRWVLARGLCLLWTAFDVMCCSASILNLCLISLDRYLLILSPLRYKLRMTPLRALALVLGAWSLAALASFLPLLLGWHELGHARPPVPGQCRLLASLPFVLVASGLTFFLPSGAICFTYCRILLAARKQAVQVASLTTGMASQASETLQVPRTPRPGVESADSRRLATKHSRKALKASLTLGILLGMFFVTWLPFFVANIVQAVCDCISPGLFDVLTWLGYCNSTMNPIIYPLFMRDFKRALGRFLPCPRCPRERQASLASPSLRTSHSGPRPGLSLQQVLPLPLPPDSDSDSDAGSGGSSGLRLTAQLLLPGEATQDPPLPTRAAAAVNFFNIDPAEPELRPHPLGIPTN

Muscarinic M2 = Muscarinic M2 (Homo sapiens, UniProt P08172); assay: Receptor binding, M2
Sequence of Muscarinic M2 (P08172 whole entry): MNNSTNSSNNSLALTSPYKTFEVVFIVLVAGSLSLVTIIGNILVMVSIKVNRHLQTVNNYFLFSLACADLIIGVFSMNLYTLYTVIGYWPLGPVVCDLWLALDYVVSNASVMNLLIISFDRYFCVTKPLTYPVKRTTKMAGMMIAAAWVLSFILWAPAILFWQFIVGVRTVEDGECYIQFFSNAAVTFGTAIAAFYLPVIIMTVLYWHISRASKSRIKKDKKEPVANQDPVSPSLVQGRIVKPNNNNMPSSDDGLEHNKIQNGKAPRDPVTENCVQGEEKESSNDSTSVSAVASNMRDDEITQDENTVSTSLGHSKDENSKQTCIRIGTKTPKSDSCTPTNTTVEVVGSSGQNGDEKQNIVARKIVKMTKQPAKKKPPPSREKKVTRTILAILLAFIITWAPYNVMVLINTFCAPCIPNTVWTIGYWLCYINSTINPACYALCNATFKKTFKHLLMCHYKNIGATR

Sigma σ2 = Sigma σ2 (Homo sapiens, UniProt Q5BJF2); assay: Receptor binding, σ2
Sequence of Sigma σ2 (Q5BJF2 whole entry): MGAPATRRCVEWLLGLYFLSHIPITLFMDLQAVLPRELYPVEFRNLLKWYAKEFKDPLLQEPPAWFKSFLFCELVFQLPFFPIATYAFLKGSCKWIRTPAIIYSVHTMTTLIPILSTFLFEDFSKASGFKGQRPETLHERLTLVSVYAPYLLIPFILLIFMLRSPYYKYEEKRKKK

α-Adrenergic α1D = α-Adrenergic α1D (Homo sapiens, UniProt P25100); assay: Receptor binding, α1D
Dopamine D2 = Dopamine D2 (Homo sapiens, UniProt P14416); assay: Receptor binding, D2
Sequence of Dopamine D2 (P14416 whole entry): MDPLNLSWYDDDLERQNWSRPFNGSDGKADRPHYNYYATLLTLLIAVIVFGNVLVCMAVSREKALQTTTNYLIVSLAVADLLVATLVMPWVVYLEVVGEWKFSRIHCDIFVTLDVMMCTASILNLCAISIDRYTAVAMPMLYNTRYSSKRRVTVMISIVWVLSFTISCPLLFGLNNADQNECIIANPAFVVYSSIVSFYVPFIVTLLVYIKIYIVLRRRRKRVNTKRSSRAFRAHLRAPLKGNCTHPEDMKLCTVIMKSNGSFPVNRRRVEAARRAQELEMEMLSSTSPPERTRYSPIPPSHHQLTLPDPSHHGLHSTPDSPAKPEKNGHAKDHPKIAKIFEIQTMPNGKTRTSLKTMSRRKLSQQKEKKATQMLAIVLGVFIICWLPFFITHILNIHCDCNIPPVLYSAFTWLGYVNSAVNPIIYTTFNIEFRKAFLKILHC

Serotonin transporter = Serotonin transporter (Homo sapiens, UniProt P31645); assay: Receptor binding, serotonin transporter
Serotonin 5-HT1B = Serotonin 5-HT1B (Homo sapiens, UniProt P28222); assay: Receptor binding, 5-HT1B
Sequence of Serotonin 5-HT1B (P28222 whole entry): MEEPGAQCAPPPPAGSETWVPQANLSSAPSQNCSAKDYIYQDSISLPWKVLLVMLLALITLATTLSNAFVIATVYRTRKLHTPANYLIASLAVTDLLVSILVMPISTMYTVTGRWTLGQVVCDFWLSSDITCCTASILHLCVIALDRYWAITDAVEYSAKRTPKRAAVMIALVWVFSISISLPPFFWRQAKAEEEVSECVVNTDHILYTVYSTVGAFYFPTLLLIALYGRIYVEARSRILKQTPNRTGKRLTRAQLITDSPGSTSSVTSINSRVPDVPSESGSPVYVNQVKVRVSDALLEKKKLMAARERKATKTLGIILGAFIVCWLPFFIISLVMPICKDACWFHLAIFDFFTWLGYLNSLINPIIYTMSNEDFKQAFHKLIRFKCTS

rats = assay: Forced swim test (depression model); format: in vivo; conditions: 10 mg/kg i.p., 1 hour before test, versus imipramine 10 mg/kg, FIG. 5
dopamine receptors = assay: Receptor binding, dopamine receptors; conditions: any of the dopamine receptors, summary of Table 1
Serotonin 5-HT2A = Serotonin 5-HT2A (Homo sapiens, UniProt P28223); assay: Receptor binding, 5-HT2A
Sequence of Serotonin 5-HT2A (P28223 whole entry): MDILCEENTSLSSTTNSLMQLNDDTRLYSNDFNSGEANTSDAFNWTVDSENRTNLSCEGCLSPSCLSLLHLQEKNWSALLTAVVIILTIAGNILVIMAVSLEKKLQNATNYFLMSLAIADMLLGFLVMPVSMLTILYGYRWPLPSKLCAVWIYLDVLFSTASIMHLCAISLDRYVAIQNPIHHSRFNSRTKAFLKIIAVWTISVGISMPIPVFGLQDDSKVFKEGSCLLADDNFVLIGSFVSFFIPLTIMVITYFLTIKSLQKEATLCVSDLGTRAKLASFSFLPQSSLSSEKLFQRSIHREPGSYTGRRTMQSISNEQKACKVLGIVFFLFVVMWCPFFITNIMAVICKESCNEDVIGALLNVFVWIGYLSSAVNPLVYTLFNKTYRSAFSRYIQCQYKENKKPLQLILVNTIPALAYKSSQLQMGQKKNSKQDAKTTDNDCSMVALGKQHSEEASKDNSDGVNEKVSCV

Dopamine D1 = Dopamine D1 (Homo sapiens, UniProt P21728); assay: Receptor binding, D1
Serotonin 5-HT1D = Serotonin 5-HT1D (Homo sapiens, UniProt P28221); assay: Receptor binding, 5-HT1D
Sequence of Serotonin 5-HT1D (P28221 whole entry): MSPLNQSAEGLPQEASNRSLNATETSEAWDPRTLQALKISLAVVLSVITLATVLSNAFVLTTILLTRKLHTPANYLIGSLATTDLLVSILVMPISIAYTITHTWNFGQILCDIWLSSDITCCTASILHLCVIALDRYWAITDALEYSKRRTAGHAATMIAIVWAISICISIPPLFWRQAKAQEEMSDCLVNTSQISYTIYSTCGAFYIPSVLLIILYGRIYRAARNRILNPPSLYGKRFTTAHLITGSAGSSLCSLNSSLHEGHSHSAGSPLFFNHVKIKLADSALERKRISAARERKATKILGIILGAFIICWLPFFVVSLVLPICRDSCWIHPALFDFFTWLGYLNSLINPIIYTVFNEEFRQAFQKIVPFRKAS

β-Adrenergic β2 = β-Adrenergic β2 (Homo sapiens, UniProt P07550); assay: Receptor binding, β2
Sequence of β-Adrenergic β2 (P07550 whole entry): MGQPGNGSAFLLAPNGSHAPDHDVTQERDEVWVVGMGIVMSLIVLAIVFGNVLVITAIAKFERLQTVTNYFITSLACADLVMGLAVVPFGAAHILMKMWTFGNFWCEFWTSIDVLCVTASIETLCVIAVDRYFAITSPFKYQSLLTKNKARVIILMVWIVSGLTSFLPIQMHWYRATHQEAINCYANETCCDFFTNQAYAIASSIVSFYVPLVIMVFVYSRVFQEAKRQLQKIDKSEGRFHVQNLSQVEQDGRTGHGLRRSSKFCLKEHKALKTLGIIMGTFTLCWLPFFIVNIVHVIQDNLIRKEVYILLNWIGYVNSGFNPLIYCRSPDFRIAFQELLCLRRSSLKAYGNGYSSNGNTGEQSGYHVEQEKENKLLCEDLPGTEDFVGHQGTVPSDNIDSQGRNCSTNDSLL

Histamine H1 = Histamine H1 (Homo sapiens, UniProt P35367); assay: Receptor binding, H1; conditions: H1

CN1CCc2c(c3cccc4c3n2Cc2ccccc2O4)C1 [Compound 13b]
Ki (Histamine H3): > 10 µM | Ki (Muscarinic M3): > 10 µM | Ki (Serotonin 5-HT1A): 32 nM | binding, in words (Serotonin 5-HT1A; summary of Table 1): binds strongly | Ki (Serotonin 5-HT2B): 195 nM | Ki (Dopamine transporter): > 10 µM | Ki (Opioid μ): > 10 µM | Ki (Muscarinic M5): > 10 µM | Ki (Dopamine D3): > 10 µM | increase in motor activity elicited by MDMA ([1]; 10 mg/kg i.p. 30 min before MDMA 10 mg/kg): partially | increase in motor activity elicited by MDMA ([1]; 20 mg/kg i.p. 30 min before MDMA 10 mg/kg): completely blocked | Ki (Serotonin 5-HT1E): > 10 µM | Ki (Opioid δ): 310 nM | Ki [2]: 1950 nM | Ki (Opioid κ): > 10 µM | Ki (Serotonin 5-HT6; 5-HT6): 189 nM | binding, in words (Serotonin 5-HT6; 5-HT6, text summary of Table 1): moderate binding | Ki (Muscarinic M2): > 10 µM | Ki (Sigma σ2; σ2): 1810 nM | binding, in words (Sigma σ2; σ2, text summary of Table 1): moderate binding | Ki (α-Adrenergic α1D): 5.03 µM | Ki (Dopamine D2): > 10 µM | Ki (Serotonin transporter): 413 nM | Ki (Serotonin 5-HT1B): 738 nM | antidepressive activity (immobility, forced swim test) (rats): comparable to imipramine | binding, in words (dopamine receptors): neither of the two compounds 13a and 13b binds significantly | Ki (Serotonin 5-HT2A): 927 nM | Ki (Dopamine D1): > 10 µM | Ki (Serotonin 5-HT1D): 385 nM | binding, in words (Serotonin 5-HT1D; summary of Table 1): moderate binding | Ki (β-Adrenergic β2): > 10 µM | Ki (Histamine H1): 733 nM
